Legend:
MDA-MB-231 = test: OBOC bead whole-cell binding assay; conditions: peptide on OBOC beads, cells at 10^6 cells/ml
Procedure: (§1) Before screening, beads were extensively washed with double distilled water and phosphate buffered saline (PBS; Welgene Inc., Republic of Korea). Cancer cells and normal cells were separated from the culture dish using trypsin/EDTA (Gibco) and washed with the corresponding culture medium. The cells were resuspended at 10^6 cells/ml and cultured while shaking (60 rpm) in a 37° C. humidified CO2 incubator with OBOC beads in a Petri dish. Beads bound by cells observed with the microscope had the shape of rosettes having central beads covered with one or more cell layers. Under an inverted microscope, positive beads were picked out with a pipette, and treated with guanidine-HCL (8M, 20 minutes) to remove cells and proteins from the bead surface, and secondary screening was performed with normal breast epithelial cells to detect false positive binding. Peptide sequencing was performed by selecting only beads having cell binding in both rounds.
(§2) Libraries of peptides listed in beads (50,000 to 100,000 beads were used at one time) was mixed with a human breast cancer cell line (MDA-MB-231). […] Then, these three peptides were labeled with fluorescein isothiocyanate (FITC) and the ability thereof to bind to MDA-MB-231 cells was determined.

MCF-10A, CCD-18Co = test: Bead whole-cell binding assay, normal cell lines; conditions: cell growth bead analysis
Procedure: as §1, §2

SARS-COV-2 = test: microbe, parasite or virus in culture; conditions: Severe acute respiratory syndrome coronavirus 2, Vero C1008, 24 h
in vitro = conditions: African green monkey

Compound: AVARARRRR (Synthetic construct AGM-332)
- binding to breast cancer cell line MDA-MB-231 (MDA-MB-231): strong, specific, and preferential binding
- binding to normal cell lines MCF-10A and CCD-18Co (MCF-10A, CCD-18Co): relatively non-specific and bound

Compound: CCN(CC)CCCC(C)Nc1ccnc2cc(Cl)ccc12 (centres unmarked) [Chloroquine, chloroquine]
- IC50 (SARS-COV-2): 8.25 µM

Compound: CCC(CC)COC(=O)[C@H](C)N[P@](=O)(OC[C@H]1O[C@@](C#N)(c2ccc3c(N)ncnn23)[C@H](O)[C@@H]1O)Oc1ccccc1 [Remdesivir, remdesivir]
- IC50 (SARS-COV-2): 10.9 µM
- CC50 (in vitro): > 50 µM
